Read-outs that look alike come from different tables or passages of the source. Starred links: 1 amine or outer side, 2 acyl side, 3 side chain; linkers in the order of their positions; H or OH if unused. Positions of bridges follow the written chain, without caps; N, C: chain ends. Non-standard residues stand in square brackets, D forms with d. Residues, ends and D or L forms follow the SMILES beside them. Chains are numbered I, II in the order given. Actinocin(9to1) = Cc1c2oc3c(C)ccc(C(=O)[*:1])c3nc-2c(C(=O)[*:2])c(N)c1=O; NMeV = CN[C@H](C(=O)O)C(C)C; Sar = CNCC(=O)O
How the values were obtained:
[1] = tested on: A549 human lung carcinoma cell line; test: MTT cytotoxicity assay in A549 cells: IC50 of single agents and combinations with PM01183; assay type: cell-based
Protocol: (§1) Additional serial dilutions were prepared in serum-free culture medium to achieve a final 4× concentration. Aliquots of 50 μL of each diluted compound were added per well.
A549 was the human lung carcinoma cell line selected for this assay.
(§2) a. […] Briefly, cells were harvested and seeded in 96 well microtiter plates at a density of 5,000 cells in 150 μL of culture medium and incubated for 24 hours in drug-free medium before treatment with vehicle alone or test compounds for 72 h.
(§3) The cytotoxic effect was measured by the MTT reduction assay, in which 3-(4,5-Dimethylthiazol-2-yl)-2,5-diphenyltetrazolium bromide, a tetrazole, which is reduced to purple formazan in the mitochondria of living cells, was used. MTT (50 μL of 1 mg/mL stock solution) was added to the wells and incubated for 8 hours at 37° C. until formazan crystals were formed. After gently removing the culture medium, DMSO was added to dissolve the insoluble purple formazan product into a colored solution. […] Results were expressed as percentage of control cell growth.
(§4) b. In a second set of assays, A549 human tumor cells were incubated with PM01183 in combination with each of the agents mentioned above.
(§5) As a visual aid, response values were plotted on a scatter plot with dose ratios given on the x-axis and % response values on the y-axis. […] In cases where response values at the two endpoints were approximately equivalent, points lying above or below this predicted line of additivity could be interpreted as representing antagonistic or synergistic drug interaction, respectively.

[2] = tested on: A673 human rhabdomyosarcoma cell line; test: cells
Protocol: as §2, §3, §4, §5, §1
A673 was the human rhabdomyosarcoma cell line selected for this assay.

[3] = tested on: SK-MEL-2 human melanoma cell line; test: cells; conditions: Homo sapiens, SK-MEL-2, 72 h
Protocol: as §2, §3, §4, §5, §1
SK-MEL-2 was the human melanoma cell line selected for this assay.

[4] = tested on: HGC-27 human gastric carcinoma cell line; test: cells
Protocol: as §2, §3, §4, §5, §1
HGC-27 was the human gastric carcinoma cell line selected for this assay.

[5] = tested on: IGROV-1 human ovarian adenocarcinoma cell line; test: cells
Protocol: as §2, §3, §4, §5, §1
IGROV-1 was the human ovarian adenocarcinoma cell line selected for this assay.

[6] = tested on: MDA-MB-231 human breast adenocarcinoma cell line; test: cells
Protocol: as §2, §3, §4, §5, §1

[7] = tested on: RXF-393 human kidney carcinoma cell line; test: cells
Protocol: as §2, §3, §4, §5, §1

[8] = tested on: HT-29 human colon adenocarcinoma cell line; test: cells
Protocol: as §2, §3, §4, §5, §1
HT-29 was the human colon adenocarcinoma cell line selected for this assay.

[9] = tested on: U87-MG human glioblastoma cell line; test: cells; conditions: Homo sapiens, U-87 MG, 72 h
Protocol: as §2, §3, §4, §5, §1
U87-MG was the human glioblastoma cell line selected for this assay.

[10] = tested on: HT1080 tumors; test: Human fibrosarcoma (HT1080) orthotopically implanted in athymic nude mice, total diameter (tumor+leg) % T/C; assay type: in vivo
Protocol: Female athymic nude mice (Harlan Laboratories Models, S.L. (Barcelona, Spain) were utilized for all experiments. Animals were housed in individually ventilated cages, up to ten per cage in a 12-hour light-dark cycle at 21-23° C. and 40-60% humidity. The mice were allowed free access to irradiated standard rodent diet and sterilized water. Animals were acclimated for at least 5 days prior to tumor implantation with a tumor cell suspension.
HT1080 cells were grown at 37° C. with 5% CO2 in Minimum Essential Medium Eagle (MEME). Each animal was orthotopically implanted into gastroecnemius muscle by an intramuscular injection using 26G needle and a 1 cc syringe, with 5×10^6 HT1080 cells, from in vitro passage 9, suspended in serum free medium, without antibiotics.
Total diameter (tumor+leg) measurements were determined by using digital caliper (Fowler Sylvac, S235PAT). This total diameter and animal body weights were measured 2-3 times per week starting from the first day of treatment.
Treatment tolerability was assessed by monitoring body weight evolution, clinical signs as well as evidences of local damage in the injection site.
PM01183 was provided in the form of vials of lyophilized PM01183 cake which was reconstituted with water for infusion to a concentration of 0.2 mg/mL. The PM01183 stock solution was further diluted in 5% glucose solution for injection to the dosing formulation concentrations. Dacarbazine was provided in the form of a solution prepared by diluting the product with 5% glucose solution for injection to the target final concentration.
Dose level groups were administered either as single agents or in combination.
Comparison of the median total diameter (tumor+leg) in the treatment groups (T) to the median total diameter (tumor+leg) in the control group (T/C×100%) was used for evaluation of the antitumor efficacy.

[11] = tested on: PC-3 human prostate cancer cell line; test: cells
Protocol: as §2, §3, §4, §5, §1
PC-3 was the human prostate adenocarcinome cell line selected for this assay.

[12] = tested on: PANC-1 human pancreatic carcinoma cell line; test: cells
Protocol: as §2, §3, §4, §5, §1
PANC-1 was the human pancreatic carcinoma cell line selected for this assay.

[13] = tested on: HepG2 human hepatocellular liver carcinoma cell line; test: MTT cytotoxicity assay in HepG2 cells: IC50 of single agents and combinations with PM01183; assay type: cell-based; conditions: Homo sapiens
Protocol: as §2, §3, §4, §5, §1
HepG2 was the human hepatocellular liver carcinoma cell line selected for this assay.

## CN(C)/N=N/c1[nH]cnc1C(N)=O [Dacarbazine, dacarbazine]
[1]; Homo sapiens, A549, 72 h
  IC50: 600 µM
[2]; Homo sapiens, A673, 72 h
  IC50: 300 µM
[3]
  IC50: 630 µM
[4]; Homo sapiens, HGC-27, 72 h
  IC50: 346 µM
[5]; Homo sapiens, IGROV-1, 72 h
  IC50: 398 µM
[6]; Homo sapiens, MDA-MB-231, 72 h
  IC50: 19.2 µM
[7]; Homo sapiens, RXF 393, 72 h
  IC50: 794 µM
[8]; Homo sapiens, HT-29, 72 h
  IC50: 24.7 µM
[9]
  IC50: 700 µM
[10]; Dacarbazine 37.5 mg/kg
  % T/C on day 0: 100%
  % T/C on day 2: 51.8%
  % T/C on day 4: 54.3%
  % T/C on day 7: 65.4%
  % T/C on day 9: 61.3%
  % T/C on day 11: 47.9%
  % T/C on day 14: 55.1%
  % T/C on day 16: 62.1%
[10]; Dacarbazine 112.5 mg/kg
  % T/C on day 0: 100%
  % T/C on day 2: 48.1%
  % T/C on day 4: 34.3%
  % T/C on day 7: 53.8%
  % T/C on day 9: 48.0%
  % T/C on day 11: 37.5%
  % T/C on day 14: 43.2%
  % T/C on day 16: 53.2%
[10]; Dacarbazine 150.0 mg/kg
  % T/C on day 0: 100%
  % T/C on day 2: 40.7%
  % T/C on day 4: 28.6%
  % T/C on day 7: 30.8%
  % T/C on day 9: 44.0%
  % T/C on day 11: 37.5%
  % T/C on day 14: 44.9%
  % T/C on day 16: 57.3%

## CCc1c2c(nc3ccc(OC(=O)N4CCC(N5CCCCC5)CC4)cc13)-c1cc3c(c(=O)n1C2)COC(=O)[C@]3(O)CC [Irinotecan, irinotecan]
[3]
  IC50: 18 µM
[11]; Homo sapiens, PC-3, 72 h
  IC50: 70 µM
[12]; Homo sapiens, PANC-1, 72 h
  IC50: 90 µM
[4]; Homo sapiens, HGC-27, 72 h
  IC50: 4 µM
[5]; Homo sapiens, IGROV-1, 72 h
  IC50: 10 µM
[13]; HepG2, 72 h
  IC50: 1 µM
[6]; Homo sapiens, MDA-MB-231, 72 h
  IC50: 8.5 µM
[7]; Homo sapiens, RXF 393, 72 h
  IC50: 14 µM
[8]; Homo sapiens, HT-29, 72 h
  IC50: 9 µM
[9]
  IC50: 7.54 µM

## Cc1c2oc3c(C)ccc(C(=O)N[C@@H]4C(=O)N[C@H](C(C)C)C(=O)N5CCC[C@H]5C(=O)N(C)CC(=O)N(C)[C@@H](C(C)C)C(=O)O[C@@H]4C)c3nc-2c(C(=O)N[C@@H]2C(=O)N[C@H](C(C)C)C(=O)N3CCC[C@H]3C(=O)N(C)CC(=O)N(C)[C@@H](C(C)C)C(=O)O[C@@H]2C)c(N)c1=O [Actinomycin D, actinomycin D] (I: T[dV]P[Sar][NMeV] / II: T[dV]P[Sar][NMeV]; ester I:1-I:C, II:1-II:C; linker I:N-II:N via Actinocin(9to1))
[1]; A549, 72 hours drug exposure, MTT, read-out: IC50
  IC50: 0.0047 µM
[2]; A673, 72 hours drug exposure, MTT
  IC50: 0.000956 µM
[11]; PC-3, 72 hours drug exposure, MTT
  IC50: 0.01 µM
[12]; PANC-1, 72 hours drug exposure, MTT
  IC50: 0.022 µM
[4]; HGC-27, 72 hours drug exposure, MTT
  IC50: 0.00374 µM
[5]; IGROV-1, 72 hours drug exposure, MTT
  IC50: 0.00329 µM
[6]; MDA-MB-231, 72 hours drug exposure, MTT
  IC50: 0.000454 µM
[7]; RXF-393, 72 hours drug exposure, MTT
  IC50: 0.000709 µM
[8]; HT-29, 72 hours drug exposure, MTT
  IC50: 0.00327 µM

## C#Cc1cccc(Nc2ncnc3cc(OCCOC)c(OCCOC)cc23)c1 [Erlotinib, erlotinib]
[1]; Homo sapiens, A549, 72 h
  IC50: 10 µM
[2]; Homo sapiens, A673, 72 h
  IC50: 50 µM
[11]; Homo sapiens, PC-3, 72 h
  IC50: 233 µM
[12]; Homo sapiens, PANC-1, 72 h
  IC50: 0.416 µM
[4]; Homo sapiens, HGC-27, 72 h
  IC50: 7.5 µM
[5]; Homo sapiens, IGROV-1, 72 h
  IC50: 7.91 µM
[13]; HepG2, 72 hours drug exposure, MTT, read-out: IC50
  IC50: 8.6 µM
[6]; Homo sapiens, MDA-MB-231, 72 h
  IC50: 100 µM
[7]; Homo sapiens, RXF 393, 72 h
  IC50: 4.8 µM
[8]; Homo sapiens, HT-29, 72 h
  IC50: 25.6 µM
[9]
  IC50: 149 µM

From patent US11590129B2, “Combination therapy with an antitumor alkaloid” (PHARMA MAR, S.A., priority 2010, dated 2023)
